Experimental data as given in ChEMBL document CHEMBL3112450, “Synthesis and in vitro antitumor evaluation of primary amine substituted quinazoline linked benzimidazole” (Bioorg Med Chem Lett, 2014).

How the values were obtained:
Format in all cases: functional
[1] = Cytotoxicity against human Hs578T cells assessed as cell growth at 10^-7 M after 48 hrs by SRB assay; conditions: Hs-578T, read-out: Activity
NCI-H23 = test: Cytotoxicity against human NCI-H23 cells after 48 hrs by SRB assay; conditions: NCI-H23, 48 h
CAKI-1 = test: Cytotoxicity against human Caki1 cells after 48 hrs by SRB assay; conditions: CAKI-1, 48 h
HT-29 [2] = test: Cytotoxicity against human HT-29 cells assessed as cell growth at 10^-4 M after 48 hrs by SRB assay; conditions: HT-29, 48 h, read-out: Activity
NCI-H226 [3] = test: Cytotoxicity against human NCI-H226 cells assessed as cell growth at 10^-4 M after 48 hrs by SRB assay; conditions: NCI-H226, 48 h, read-out: Activity
RPMI-8226 [4] = test: Cytotoxicity against human RPMI8226 cells assessed as cell growth at 10^-4 M after 48 hrs by SRB assay; conditions: RPMI-8226, 48 h, read-out: Activity
SW-620 [5] = test: Cytotoxicity against human SW620 cells assessed as cell growth at 10^-8 M after 48 hrs by SRB assay; conditions: SW-620, 48 h, read-out: Activity
OVCAR-8 [6] = test: Cytotoxicity against human OVCAR8 cells assessed as cell growth at 10^-4 M after 48 hrs by SRB assay; conditions: OVCAR-8, 48 h, read-out: Activity
HCC 2998 = test: Cytotoxicity against human HCC2998 cells assessed as cell growth at 10^-8 M after 48 hrs by SRB assay; conditions: HCC 2998, 48 h, read-out: Activity
Malme-3M [7] = test: Cytotoxicity against human MALME-3M cells after 48 hrs by SRB assay
HT-29 [8] = test: Cytotoxicity against human HT-29 cells assessed as cell growth at 10^-8 M after 48 hrs by SRB assay; conditions: HT-29, 48 h, read-out: Activity
HCT-15 = test: Cytotoxicity against human HCT15 cells assessed as cell growth at 10^-7 M after 48 hrs by SRB assay; conditions: HCT-15, 48 h, read-out: Activity
NCI-H226 [9] = test: Cytotoxicity against human NCI-H226 cells assessed as cell growth at 10^-7 M after 48 hrs by SRB assay; conditions: NCI-H226, 48 h, read-out: Activity
IGROV-1 = test: Cytotoxicity against human IGROV1 cells assessed as cell growth at 10^-8 M after 48 hrs by SRB assay; conditions: IGROV-1, 48 h, read-out: Activity
MDA-MB-231 = test: Cytotoxicity against human MDA-MB-231 cells after 48 hrs by SRB assay; conditions: MDA-MB-231, 48 h
MOLT-4 = test: Cytotoxicity against human MOLT4 cells assessed as cell growth at 10^-8 M after 48 hrs by SRB assay; conditions: MOLT-4, 48 h, read-out: Activity
SK-MEL-5 = test: Cytotoxicity against human SK-MEL-5 cells after 48 hrs by SRB assay; conditions: SK-MEL-5, 48 h
[10] = Cytotoxicity against human OVCAR5 cells assessed as cell growth at 10^-4 M after 48 hrs by SRB assay; conditions: OVCAR-5, 48 h, read-out: Activity
[11] = Cytotoxicity against human OVCAR5 cells after 48 hrs by SRB assay; conditions: OVCAR-5, 48 h
OVCAR-8 [12] = test: Cytotoxicity against human OVCAR8 cells assessed as cell growth at 10^-8 M after 48 hrs by SRB assay; conditions: OVCAR-8, 48 h, read-out: Activity
RPMI-8226 [13] = test: Cytotoxicity against human RPMI8226 cells assessed as cell growth at 10^-8 M after 48 hrs by SRB assay; conditions: RPMI-8226, 48 h, read-out: Activity
HOP-92 = test: Cytotoxicity against human HOP92 cells assessed as cell growth at 10^-6 M after 48 hrs by SRB assay; conditions: HOP-92, 48 h, read-out: Activity
K562 = test: Cytotoxicity against human K562 cells after 48 hrs by SRB assay; conditions: K562, 48 h
[14] = Cytotoxicity against human OVCAR4 cells after 48 hrs by SRB assay; conditions: OVCAR-4, 48 h
SK-MEL-2 = test: Cytotoxicity against human SK-MEL-2 cells after 48 hrs by SRB assay; conditions: SK-MEL-2, 48 h
SR [15] = test: Cytotoxicity against human SR cells after 48 hrs by SRB assay
TK-10 [16] = test: Cytotoxicity against human TK10 cells assessed as cell growth at 10^-8 M after 48 hrs by SRB assay; conditions: TK-10, 48 h, read-out: Activity
Malme-3M [17] = test: Cytotoxicity against human MALME-3M cells assessed as cell growth at 10^-8 M after 48 hrs by SRB assay; conditions: read-out: Activity
UACC-62 = test: Cytotoxicity against human UACC62 cells assessed as cell growth at 10^-6 M after 48 hrs by SRB assay; conditions: UACC-62, 48 h, read-out: Activity
TK-10 [18] = test: Cytotoxicity against human TK10 cells assessed as cell growth at 10^-4 M after 48 hrs by SRB assay; conditions: TK-10, 48 h, read-out: Activity
786-0 = test: Cytotoxicity against human 786-0 cells assessed as cell growth at 10^-7 M after 48 hrs by SRB assay; conditions: 786-0, 48 h, read-out: Activity
DU-145 = test: Cytotoxicity against human DU145 cells assessed as cell growth at 10^-8 M after 48 hrs by SRB assay; conditions: DU-145, 48 h, read-out: Activity
SR [19] = test: Cytotoxicity against human SR cells assessed as cell growth at 10^-6 M after 48 hrs by SRB assay; conditions: read-out: Activity
[20] = Cytotoxicity against human UO31 cells assessed as cell growth at 10^-6 M after 48 hrs by SRB assay; conditions: UO-31, 48 h, read-out: Activity
HOP-62 = test: Cytotoxicity against human HOP62 cells after 48 hrs by SRB assay; conditions: HOP-62, 48 h
MDA-MB-468 [21] = test: Cytotoxicity against human MDA-MB-468 cells after 48 hrs by SRB assay; conditions: MDA-MB-468, 48 h
SW-620 [22] = test: Cytotoxicity against human SW620 cells assessed as cell growth at 10^-4 M after 48 hrs by SRB assay; conditions: SW-620, 48 h, read-out: Activity
Malme-3M [23] = test: Cytotoxicity against human MALME-3M cells assessed as cell growth at 10^-6 M after 48 hrs by SRB assay; conditions: read-out: Activity
MDA-MB-468 [24] = test: Cytotoxicity against human MDA-MB-468 cells assessed as cell growth at 10^-6 M after 48 hrs by SRB assay; conditions: MDA-MB-468, 48 h, read-out: Activity

## C=CCn1c(C)nc2cc(Nc3nc(Nc4ccc5nc(C)n(CC=C)c5c4)c4ccccc4n3)ccc21
[1]
  growth at 0.1 µM: 96%
NCI-H23
  GI50: 2.05 µM
  TGI: 4.2 µM
CAKI-1
  GI50: 1.61 µM
  LC50 (concentration causing 50% net cell kill): 5.69 µM
  TGI: 3.03 µM
HT-29 [2]
  growth at 100 µM: -50%
NCI-H226 [3]
  growth at 100 µM: -12%
RPMI-8226 [4]
  growth at 100 µM: -20%
SW-620 [5]
  growth at 0.01 µM: 97%
OVCAR-8 [6]
  growth at 100 µM: 1%
HCC 2998
  growth at 0.01 µM: 99%
Malme-3M [7]
  GI50: 2.27 µM
  TGI: 4.1 µM
HT-29 [8]
  growth at 0.01 µM: 103%
HCT-15
  growth at 0.1 µM: 96%
NCI-H226 [9]
  growth at 0.1 µM: 82%
IGROV-1
  growth at 0.01 µM: 103%
MDA-MB-231
  GI50: 0.205 µM
  TGI: 0.417 µM
MOLT-4
  growth at 0.01 µM: 98%
SK-MEL-5
  GI50: 1.59 µM
  TGI: 3.69 µM
[10]
  growth at 100 µM: -44%
[11]
  GI50: 0.4 µM
  TGI: 1.49 µM
OVCAR-8 [12]
  growth at 0.01 µM: 100%
RPMI-8226 [13]
  growth at 0.01 µM: 100%
HOP-92
  growth at 1 µM: 45%
K562
  GI50: 0.218 µM
[14]
  GI50: 0.276 µM
  TGI: 0.73 µM
SK-MEL-2
  GI50: 1.44 µM
  TGI: 3.08 µM
SR [15]
  GI50: 0.222 µM
  LC50: > 100 µM
TK-10 [16]
  growth at 0.01 µM: 96%
Malme-3M [17]
  growth at 0.01 µM: 95%
UACC-62
  growth at 1 µM: 66%
TK-10 [18]
  growth at 100 µM: -63%
786-0
  growth at 0.1 µM: 98%
DU-145
  growth at 0.01 µM: 99%
SR [19]
  growth at 1 µM: -23%
[20]
  growth at 1 µM: 72%
HOP-62
  GI50: 0.232 µM
  TGI: 0.552 µM
MDA-MB-468 [21]
  GI50: 0.216 µM
  LC50 (concentration killing 50% of cells): > 100 µM
  TGI: 0.578 µM
SW-620 [22]
  growth at 100 µM: -8%
Malme-3M [23]
  growth at 1 µM: 120%
MDA-MB-468 [24]
  growth at 1 µM: -28%

## C=CCn1c(C)nc2ccc(Nc3nc(Nc4ccc(F)cc4)nc4ccccc34)cc21
[1]
  growth at 0.1 µM: 99%
NCI-H23
  GI50: 4.23 µM
  LC50 (concentration giving 50% net cell kill): > 100 µM
  TGI: 26 µM
CAKI-1
  GI50: 6.86 µM
  LC50 (concentration causing 50% net cell kill): 92.6 µM
  TGI: 27.5 µM
HT-29 [2]
  growth at 100 µM: -34%
NCI-H226 [3]
  growth at 100 µM: -5%
RPMI-8226 [4]
  growth at 100 µM: -36%
SW-620 [5]
  growth at 0.01 µM: 99%
OVCAR-8 [6]
  growth at 100 µM: -26%
HCC 2998
  growth at 0.01 µM: 95%
Malme-3M [7]
  GI50: 13.1 µM
  LC50: 97.3 µM
  TGI: 35.7 µM
HT-29 [8]
  growth at 0.01 µM: 100%
HCT-15
  growth at 0.1 µM: 101%
NCI-H226 [9]
  growth at 0.1 µM: 93%
IGROV-1
  growth at 0.01 µM: 95%
MDA-MB-231
  GI50: 2.37 µM
  LC50: > 100 µM
  TGI: 8.24 µM
MOLT-4
  growth at 0.01 µM: 98%
SK-MEL-5
  GI50: 1.36 µM
  LC50: 5.14 µM
  TGI: 2.64 µM
[10]
  growth at 100 µM: -80%
[11]
  GI50: 11.6 µM
  LC50: 61.2 µM
  TGI: 26.6 µM
OVCAR-8 [12]
  growth at 0.01 µM: 98%
RPMI-8226 [13]
  growth at 0.01 µM: 106%
HOP-92
  growth at 1 µM: 41%
K562
  GI50: 3.13 µM
  LC50 (concentration killing 50% of cells): > 100 µM
  TGI: 11.9 µM
[14]
  GI50: 2.06 µM
  LC50: > 100 µM
  TGI: 5.81 µM
SK-MEL-2
  GI50: 3.16 µM
  LC50: 53.3 µM
  TGI: 11.4 µM
SR [15]
  GI50: 2.26 µM
  LC50: > 100 µM
  TGI: 5.93 µM
TK-10 [16]
  growth at 0.01 µM: 99%
Malme-3M [17]
  growth at 0.01 µM: 97%
UACC-62
  growth at 1 µM: 91%
TK-10 [18]
  growth at 100 µM: -63%
786-0
  growth at 0.1 µM: 98%
DU-145
  growth at 0.01 µM: 100%
SR [19]
  growth at 1 µM: 92%
[20]
  growth at 1 µM: 83%
HOP-62
  GI50: 1.88 µM
  TGI: 3.76 µM
MDA-MB-468 [21]
  GI50: 1.23 µM
  TGI: 2.6 µM
SW-620 [22]
  growth at 100 µM: -48%
Malme-3M [23]
  growth at 1 µM: 101%
MDA-MB-468 [24]
  growth at 1 µM: 64%
